Assay: In vivo perfused liver: absorption from portal vein blood and excretion into the bile
Parameters: species or system rat
Settings: after W-X-G (Example 67)
Protocol: In order to investigate a selective absorption of bile acid derivatives into the liver and their hepatotropic action, the appropriate derivatives were injected as a bolus into a mesenteric vein of anesthetized rats and the excretion of these derivatives and the corresponding active compounds or active compound metabolites into the bile was analysed.
Male Sprague-Dawley rats (300-500 g bodyweight) had their food withdrawn and received water ad libitum. After tracheotomy, the abdomen was opened by median section under urethane anesthesia ([…] i.m. urethane 30%). The pylorus was ligated and the bile duct was cannulated by advancing a polyethylene tube (d=0.05 mm) up to the liver and the bile was drained. The volume of secretion was measured at 15 minute intervals. After a preliminary period of 60 minutes, the substances (0.5 ml of a 1 mM solution in 0.9% NaCl solution) were administered into a mesenteric vein in the course of 30 sec and the bile was collected at prestated time intervals (2, 4, 6, 8, 10, 15, 20, 30, 40, 50, 60, 70, 80, 90, 100, 110 and 120 min). The bile acid derivative was administered first, and the appropriate active compound was administered after a collection period of 2 hours. 120 min after administration of test substance, the bladder volume was measured and the urine was also collected. The bile and urine samples were stored on ice during the experiment and then deep-frozen.
Each 10 μl bile sample was applied to TLC plates (10×20 cm, silica gel 60 specific layer thickness 0.25 mm, No. 37581 Riedel de Haen, Seelze, Federal Republic of Germany) using Microcaps (Drummond, Broomall, USA) and the thin-layer plates were dried in the air for 20 min.
The plates were developed in the following mobile phases: Substance Mobile phase
The constituents of the mobile phases were bought from the usual manufacturers in the highest possible purity grade. After developing and drying the plates, the distribution of the active compounds and the bile acid derivatives, or their metabolites, was determined by densitometry (CD 50 densitometer, DESAGA; Heidelberg). Detection was carried out in reflection mode with linear sampling at the wavelengths 252 nm (chlorambucil/chlorambucil conjugate) or 260 nm (remaining substances).
In order to evaluate the chromatograms, the relative intensity of the bile acid derivatives, the active compounds or the active compound metabolites on a chromatogram was given in surface area units.

For C[C@H](CCC(=O)NCCS(=O)(=O)O)[C@H]1CC[C@H]2[C@@H]3[C@H](O)C[C@@H]4C[C@@H](OCCNC(=O)CCCc5ccc(N(CCCl)CCCl)cc5)CC[C@]4(C)[C@H]3C[C@H](O)[C@]12C [Example 67], the “(2) Conc. W-X-G in bile” value (bile at 2 min) was 1207 surface area units, the “Total (1) + (2)” value (bile at 2 min) was 1207 surface area units and the “(2) Conc. W-X-G in bile” value (bile at 4 min) was 17803 surface area units. For the same compound, the “Total (1) + (2)” value (bile at 4 min) was 17803 surface area units, the “(2) Conc. W-X-G in bile” value (bile at 6 min) was 21762 surface area units and the “Total (1) + (2)” value (bile at 6 min) was 21762 surface area units. The “(2) Conc. W-X-G in bile” value (bile at 8 min) was 27280 surface area units, the “Total (1) + (2)” value (bile at 8 min) was 27280 surface area units and the “(2) Conc. W-X-G in bile” value (bile at 10 min) was 27346 surface area units. For the same compound, the “Total (1) + (2)” value (bile at 10 min) was 27346 surface area units, the “(2) Conc. W-X-G in bile” value (bile at 15 min) was 16673 surface area units and the “Total (1) + (2)” value (bile at 15 min) was 16673 surface area units. For the same compound, the “(2) Conc. W-X-G in bile” value (bile at 20 min) was 10748 surface area units, the “Total (1) + (2)” value (bile at 20 min) was 10748 surface area units and the “(2) Conc. W-X-G in bile” value (bile at 30 min) was 5375 surface area units. For the same compound, the “Total (1) + (2)” value (bile at 30 min) was 5375 surface area units, the “(2) Conc. W-X-G in bile” value (bile at 40 min) was 1273 surface area units and the “Total (1) + (2)” value (bile at 40 min) was 1273 surface area units. For the same compound, the “(2) Conc. W-X-G in bile” value (bile at 50 min) was 828 surface area units, the “Total (1) + (2)” value (bile at 50 min) was 828 surface area units and the “(2) Conc. W-X-G in bile” value (bile at 60 min) was 633 surface area units. The “Total (1) + (2)” value (bile at 60 min) was 633 surface area units, the “(2) Conc. W-X-G in bile” value (bile at 70 min) was 826 surface area units and the “Total (1) + (2)” value (bile at 70 min) was 826 surface area units. For the same compound, the “(2) Conc. W-X-G in bile” value (bile at 80 min) was 635 surface area units, the “Total (1) + (2)” value (bile at 80 min) was 635 surface area units and the “(2) Conc. W-X-G in bile” value (bile at 90 min) was 638 surface area units. The “Total (1) + (2)” value (bile at 90 min) was 638 surface area units, the “(2) Conc. W-X-G in bile” value (bile at 100 min) was 559 surface area units and the “Total (1) + (2)” value (bile at 100 min) was 559 surface area units. The “(2) Conc. W-X-G in bile” value (bile at 110 min) was 408 surface area units, the “Total (1) + (2)” value (bile at 110 min) was 408 surface area units and the “(2) Conc. W-X-G in bile” value (bile at 120 min) was 383 surface area units. For the same compound, the “Total (1) + (2)” value (bile at 120 min) was 383 surface area units.

— patent US5462933A, “Modified bile acid conjugates, and their use as pharmaceuticals” (Hoechst Aktiengesellschaft, priority 1989, dated 1995)
